Patent publication US9376396B2, “Acylaminocycloalkyl compounds suitable for treating disorders that respond to modulation of dopamine D3 receptor” (AbbVie Deutschland GmbH & Co. KG, priority 2012, dated 2016)

Columns and labels:
[1] = biological target: T1, hERG cardiac K+ channel (Homo sapiens, UniProt Q12809); experiment: Blocking the hERG channel ([3H]dofetilide displacement); type: binding; details: membrane homogenate from HEK 293 cells expressing hERG
T1 construct: expressed in transfected cells; host or cells: HEK-293
T1 sequence (Q12809 whole entry): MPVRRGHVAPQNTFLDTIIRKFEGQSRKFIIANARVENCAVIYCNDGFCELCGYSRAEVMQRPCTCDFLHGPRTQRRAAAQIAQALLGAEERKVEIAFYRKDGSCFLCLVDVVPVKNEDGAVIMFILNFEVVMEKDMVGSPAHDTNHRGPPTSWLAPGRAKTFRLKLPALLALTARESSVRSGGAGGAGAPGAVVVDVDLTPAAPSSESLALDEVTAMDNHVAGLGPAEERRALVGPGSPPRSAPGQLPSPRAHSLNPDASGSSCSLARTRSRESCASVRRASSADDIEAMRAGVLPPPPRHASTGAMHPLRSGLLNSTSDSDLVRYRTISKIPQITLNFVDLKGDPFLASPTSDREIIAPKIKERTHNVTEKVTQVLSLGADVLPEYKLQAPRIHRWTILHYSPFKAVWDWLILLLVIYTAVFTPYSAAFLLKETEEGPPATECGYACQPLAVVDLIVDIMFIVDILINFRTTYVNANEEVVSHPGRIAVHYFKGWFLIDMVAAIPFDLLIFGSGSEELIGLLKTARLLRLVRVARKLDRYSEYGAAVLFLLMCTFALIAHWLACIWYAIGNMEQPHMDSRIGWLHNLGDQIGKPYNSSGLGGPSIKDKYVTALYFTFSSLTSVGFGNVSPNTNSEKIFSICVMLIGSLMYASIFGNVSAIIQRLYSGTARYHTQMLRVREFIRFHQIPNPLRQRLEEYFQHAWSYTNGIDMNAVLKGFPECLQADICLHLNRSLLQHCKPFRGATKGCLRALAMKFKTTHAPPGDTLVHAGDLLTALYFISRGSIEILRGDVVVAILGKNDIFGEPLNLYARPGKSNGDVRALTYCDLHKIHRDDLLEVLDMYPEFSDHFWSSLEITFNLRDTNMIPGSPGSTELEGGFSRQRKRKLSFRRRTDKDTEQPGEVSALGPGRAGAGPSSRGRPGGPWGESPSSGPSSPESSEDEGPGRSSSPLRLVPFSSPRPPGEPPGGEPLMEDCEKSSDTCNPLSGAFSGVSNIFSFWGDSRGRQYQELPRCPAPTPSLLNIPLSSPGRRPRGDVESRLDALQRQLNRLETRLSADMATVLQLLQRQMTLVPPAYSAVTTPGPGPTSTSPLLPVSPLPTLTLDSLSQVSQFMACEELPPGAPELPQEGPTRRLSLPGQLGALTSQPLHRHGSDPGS
Experimental: The binding affinity of test drugs for the hERG cardiac K^+ channel was determined by their ability to displace tritiated dofetilide (a class III antiarrhythmic drug and potent hERG blocker) in membrane homogenates from HEK-293 cells heterogeneously expressing the hERG channel. The assay was performed as previously described G. J. Diaz et al., Journal of Pharmacological and Toxicological Methods, 50 (2004), 187-199). For this, drug dilutions were prepared from 10 mM DMSO stocks and the following were added to a 96-well polystyrene plate (Perkin-Elmer Optiplate): 20 μl of assay binding buffer (for total bounds), or 1 μM astemizole (for non-specific bounds), or test drug, 50 μl of [^3H]dofetilide (20 nM, ˜80 Ci/mmol specific activity), and 130 μl of membrane homogenate from HEK 293 cells stably transfected with hERG K^+ channels (final protein concentration of 30 μg per well). The plates were incubated at ambient temperature for 45 min, aspirated onto GF/B filter plates (Perkin-Elmer), and washed with 2 ml of cold wash buffer. After allowing the plates to dry, 50 μl of scintillant (Perkin-Elmer MicroScint 20) were added to each well and the radioactivity was counted in a Perkin-Elmer Topcount NXT scintillation counter. IC50 determinations were calculated from competition curves using 6 drug concentrations, half-log apart, starting at a high concentration of 100 μM (final assay DMSO concentration=1%) using a four-parameter logistic equation. The results are given as IC50 value.

[2] = Determination of the microsomal half-life / microsomal clearance, rat; type: in vitro ADME; details: rat liver microsomes, 0.5 μM test substance, 0.25 mg microsomal protein/ml, NADPH, 37° C.
Experimental: (§1) The metabolic stability of the compounds of the invention was determined in the following assay.
(§2) The test substances were incubated in a concentration of 0.5 μM as follows:
(§3) 0.5 μM test substance are preincubated together with liver microsomes from different species (from rat, human or other species) (0.25 mg of microsomal protein/ml) in 0.05 M potassium phosphate buffer of pH 7.4 in microtiter plates at 37° C. for 5 min. The reaction is started by adding NADPH (1 mg/mL). After 0, 5, 10, 15, 20 and 30 min, 50 μl aliquots are removed, and the reaction is immediately stopped and cooled with the same volume of acetonitrile. The samples are frozen until analyzed. The remaining concentration of undegraded test substance is determined by MSMS. The half-life (T½) is determined from the gradient of the signal of test substance/unit time plot, it being possible to calculate the half-life of the test substance, assuming first order kinetics, from the decrease in the concentration of the compound with time. The microsomal clearance (mCl) is calculated from mCl=ln 2/T½/(content of microsomal protein in mg/ml)×1000 [ml/min/mg] (modified from references: Di, The Society for Biomoleculur Screening, 2003, 453-462; Obach, DMD, 1999 vol 27. N 11, 1350-1359).

[3] = Determination of the microsomal half-life / microsomal clearance, human; type: in vitro ADME; details: human liver microsomes, 0.5 μM test substance, 0.25 mg microsomal protein/ml, NADPH, 37° C.
Experimental: as §1, §2, §3

[4] = biological target: T2, human dopamine D3 receptors (Homo sapiens, UniProt P35462); experiment: Receptor binding study, dopamine D3 receptor ([125I]-iodosulpride displacement); details: membranes of HEK-293 cells, 0.1 nM [125I]-iodosulpride, 25° C., 60 minutes
T2 construct: expressed in transfected cells; host or cells: HEK-293
T2 sequence (P35462 whole entry): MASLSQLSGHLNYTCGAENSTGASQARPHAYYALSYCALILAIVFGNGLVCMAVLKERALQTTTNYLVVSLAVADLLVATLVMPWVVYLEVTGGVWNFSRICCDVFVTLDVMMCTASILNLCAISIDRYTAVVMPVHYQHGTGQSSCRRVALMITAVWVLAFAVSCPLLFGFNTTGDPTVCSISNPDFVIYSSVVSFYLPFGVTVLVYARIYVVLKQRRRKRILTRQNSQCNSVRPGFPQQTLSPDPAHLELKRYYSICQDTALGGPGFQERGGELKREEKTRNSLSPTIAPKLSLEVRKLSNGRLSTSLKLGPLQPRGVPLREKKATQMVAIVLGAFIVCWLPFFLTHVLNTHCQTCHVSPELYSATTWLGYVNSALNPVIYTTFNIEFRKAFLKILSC
Experimental: (§4) The substance to be tested was either dissolved in methanol/Chremophor® (BASF SE) or in dimethyl sulfoxide and then diluted with water to the desired concentration.
(§5) Each assay mixture was run in triplicate. • The incubation buffer contained 50 mM tris, 120 mM NaCl, 5 mM KCl, 2 mM CaCl2, 2 mM MgCl2 and 0.1% bovine serum albumin, 10 μM quinolone and 0.1% ascorbic acid (prepared fresh daily). […] Each assay mixture was run in triplicate. • The incubation buffer contained 50 mM tris, 120 mM NaCl, 5 mM KCl, 2 mM CaCl2, 2 mM MgCl2 and 0.1% bovine serum albumin. The buffer was adjusted to pH 7.4 with HCl. c) Measurement and Analysis: • After having been incubated at 25° C. for 60 minutes, the assay mixtures were filtered through a Whatman GF/B glass fiber filter under vacuum using a cell collecting device. The filters were transferred to scintillation viols using a filter transfer system. After 4 ml of Ultima Gold® (Packard) have been added, the samples were shaken for one hour and the radioactivity was then counted in a Beta-Counter (Packard, Tricarb 2000 or 2200CA).

[5] = biological target: T3, human dopamine D2L receptors (long isoform) (Homo sapiens, UniProt P14416); experiment: Receptor binding study, dopamine D2L receptor ([125I]iodospiperone displacement), selectivity vs D3; details: selectivity ratio, HEK-293 membranes
T3 construct: expressed in transfected cells; host or cells: HEK-293
T3 sequence (P14416 whole entry, canonical isoform): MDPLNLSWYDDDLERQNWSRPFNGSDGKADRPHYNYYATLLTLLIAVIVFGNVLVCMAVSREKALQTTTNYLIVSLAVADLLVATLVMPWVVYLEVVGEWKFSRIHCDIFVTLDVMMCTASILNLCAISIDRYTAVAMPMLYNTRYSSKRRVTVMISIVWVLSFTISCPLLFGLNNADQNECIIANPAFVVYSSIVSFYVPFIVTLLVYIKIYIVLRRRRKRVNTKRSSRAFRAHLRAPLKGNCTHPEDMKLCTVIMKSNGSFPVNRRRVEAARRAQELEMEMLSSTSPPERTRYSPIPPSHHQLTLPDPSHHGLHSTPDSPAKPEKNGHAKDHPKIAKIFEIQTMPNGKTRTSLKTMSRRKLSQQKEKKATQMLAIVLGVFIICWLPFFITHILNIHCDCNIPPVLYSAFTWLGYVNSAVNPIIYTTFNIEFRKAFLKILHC
Experimental: as §4, §5

SMILES: COCCc1cc(N2CCN(CC[C@H]3CC[C@H](NC(C)=O)CC3)[C@@H](C)C2)nc(C(C)(C)C)n1 [Compound 9, trans-N-[4-(2-{(2S)-4-[2-tert-Butyl-6-(2-methoxy-ethyl)-pyrimidin-4-yl]-2-methyl-piperazin-1-yl}-ethyl)-cyclohexyl]-acetamide]
- IC50 [1]: > 10000 nM
- Rat mCl [2]: + (+: 20-120 μl min^−1 mg^−1)
- Human mCl [3]: + (+: 20-120 μl min^−1 mg^−1)
- Ki [4]: < 10 nM
- D2/D3 (Ki (D2L)/Ki (D3)) [5]: +++ (+++>50)

SMILES: COCCc1cc(N2CCN(CC[C@H]3CC[C@H](NC(C)=O)CC3)CC2)nc(C(C)(C)C)n1 [Compound 1, trans-N-[4-(2-{4-[2-tert-Butyl-6-(2-methoxy-ethyl)-pyrimidin-4-yl]-piperazin-1-yl}-ethyl)-cyclohexyl]-acetamide]
- IC50 [1]: > 10000 nM
- Rat mCl [2]: + (+: 20-120 μl min^−1 mg^−1)
- Human mCl [3]: + (+: 20-120 μl min^−1 mg^−1)
- Ki [4]: < 10 nM
- D2/D3 (Ki (D2L)/Ki (D3)) [5]: +++ (+++>50)

SMILES: COCc1cc(N2CCN(CC[C@H]3CC[C@H](NC(C)=O)CC3)CC2)nc(C(C)(C)C)n1 [Compound 2, trans-N-[4-(2-{4-[2-tert-butyl-6-(methoxymethyl)-pyrimidin-4-yl]-piperazin-1-yl}-ethyl)-cyclohexyl]-acetamide]
- IC50 [1]: > 10000 nM
- Rat mCl [2]: + (+: 20-120 μl min^−1 mg^−1)
- Human mCl [3]: + (+: 20-120 μl min^−1 mg^−1)
- Ki [4]: < 10 nM
- D2/D3 (Ki (D2L)/Ki (D3)) [5]: +++ (+++>50)

SMILES: COCCc1cc(N2CCN(CC[C@H]3CC[C@H](NC(C)=O)CC3)C[C@H]2C)nc(C(C)(C)C)n1 [Compound 6, trans-N-[4-(2-{(3R)-4-[2-tert-Butyl-6-(2-methoxy-ethyl)-pyrimidin-4-yl]-3-methyl-piperazin-1-yl}-ethyl)-cyclohexyl]-acetamide]
- IC50 [1]: > 10000 nM
- Rat mCl [2]: ∘ (∘: >120 μl min^−1 mg^−1)
- Human mCl [3]: + (+: 20-120 μl min^−1 mg^−1)
- Ki [4]: < 10 nM
- D2/D3 (Ki (D2L)/Ki (D3)) [5]: +++ (+++>50)

SMILES: COCCc1cc(N2CCN(CC[C@H]3C[C@H](NC(C)=O)C3)CC2)nc(C(C)(C)C)n1.O=C(O)C(F)(F)F [Compound 4b, trans-N-[3-(2-{4-[2-tert-Butyl-6-(2-methoxy-ethyl)-pyrimidin-4-yl]-piperazin-1-yl}-ethyl)-cyclobutyl]-acetamide trifluoroacetate]
- Rat mCl [2]: + (+: 20-120 μl min^−1 mg^−1)
- Human mCl [3]: + (+: 20-120 μl min^−1 mg^−1)
- Ki [4]: < 50 nM
- D2/D3 (Ki (D2L)/Ki (D3)) [5]: +++ (+++>50)

SMILES: COCCc1cc(N2CCN(CC[C@H]3CC[C@H](NC=O)CC3)CC2)nc(C(C)(C)C)n1 [Compound 11, trans-N-[4-(2-{4-[2-tert-Butyl-6-(2-methoxy-ethyl)-pyrimidin-4-yl]-piperazin-1-yl}-ethyl)-cyclohexyl]-formamide]
- IC50 [1]: > 10000 nM
- Rat mCl [2]: + (+: 20-120 μl min^−1 mg^−1)
- Human mCl [3]: + (+: 20-120 μl min^−1 mg^−1)
- Ki [4]: < 10 nM
- D2/D3 (Ki (D2L)/Ki (D3)) [5]: +++ (+++>50)

SMILES: CC(C)(C)c1nc(CCO)cc(N2CCN(CC[C@H]3CC[C@H](NC=O)CC3)CC2)n1 [Compound 23, trans-N-[4-[2-[4-[2-tert-butyl-6-(2-hydroxyethyl)pyrimidin-4-yl]piperazin-1-yl]ethyl]cyclohexyl]formamide]
- Rat mCl [2]: + (+: 20-120 μl min^−1 mg^−1)
- Human mCl [3]: + (+: 20-120 μl min^−1 mg^−1)
- Ki [4]: < 50 nM
- D2/D3 (Ki (D2L)/Ki (D3)) [5]: +++ (+++>50)

SMILES: COCCc1cc(N2CCN(CC[C@H]3CC[C@H](NC=O)CC3)C[C@@H]2C)nc(C(C)(C)C)n1 [Compound 20, trans-N-[4-[2-[(3S)-4-[2-tert-butyl-6-(2-methoxyethyl)pyrimidin-4-yl]-3-methyl-piperazin-1-yl]ethyl]cyclohexyl]formamide]
- Rat mCl [2]: + (+: 20-120 μl min^−1 mg^−1)
- Human mCl [3]: + (+: 20-120 μl min^−1 mg^−1)
- Ki [4]: < 10 nM
- D2/D3 (Ki (D2L)/Ki (D3)) [5]: +++ (+++>50)

SMILES: COCCc1cc(N2CCN(CC[C@H]3CC[C@H](NC(C)=O)CC3)C[C@@H]2C)nc(C(C)(C)C)n1 [Compound 8, trans-N-[4-(2-{(3S)-4-[2-tert-Butyl-6-(2-methoxy-ethyl)-pyrimidin-4-yl]-3-methyl-piperazin-1-yl}-ethyl)-cyclohexyl]-acetamide]
- Rat mCl [2]: + (+: 20-120 μl min^−1 mg^−1)
- Human mCl [3]: + (+: 20-120 μl min^−1 mg^−1)
- Ki [4]: < 10 nM
- D2/D3 (Ki (D2L)/Ki (D3)) [5]: +++ (+++>50)

SMILES: COCCc1cc(N2CCN(CC[C@H]3C[C@@H](NC=O)C3)CC2)nc(C(C)(C)C)n1 [Compound 17, N-[cis-3-[2-[4-[2-tert-butyl-6-(2-methoxyethyl)pyrimidin-4-yl]piperazin-1-yl]ethyl]cyclobutyl]formamide]
- Rat mCl [2]: + (+: 20-120 μl min^−1 mg^−1)
- Human mCl [3]: + (+: 20-120 μl min^−1 mg^−1)
- Ki [4]: < 50 nM
- D2/D3 (Ki (D2L)/Ki (D3)) [5]: ++ (++>20)

SMILES: COCCc1cc(N2CCN(CC[C@H]3CC[C@H](NC(C)=O)C3)CC2)nc(C(C)(C)C)n1 [Compound 15, trans-N-[(1S,3R)-3-[2-[4-[2-tert-butyl-6-(2-methoxyethyl)pyrimidin-4-yl]piperazin-1-yl]ethyl]cyclopentyl]acetamide]
- Rat mCl [2]: + (+: 20-120 μl min^−1 mg^−1)
- Human mCl [3]: + (+: 20-120 μl min^−1 mg^−1)
- Ki [4]: < 10 nM
- D2/D3 (Ki (D2L)/Ki (D3)) [5]: +++ (+++>50)

SMILES: CC(=O)N[C@H]1CC[C@H](CCN2CCN(c3cc(CCO)nc(C(C)(C)C)n3)CC2)CC1 [Compound 13, trans-N-[4-(2-{4-[2-tert-Butyl-6-(2-hydroxy-ethyl)-pyrimidin-4-yl]-piperazin-1-yl}-ethyl)-cyclohexyl]-acetamide]
- IC50 [1]: > 10000 nM
- Rat mCl [2]: + (+: 20-120 μl min^−1 mg^−1)
- Human mCl [3]: + (+: 20-120 μl min^−1 mg^−1)
- Ki [4]: < 10 nM
- D2/D3 (Ki (D2L)/Ki (D3)) [5]: +++ (+++>50)

SMILES: COCCc1cc(N2CCN(CCC3CC(NC=O)C3)CC2)nc(C(C)(C)C)n1.O=C(O)C(F)(F)F (stereo not drawn) [Compound 12, N-[3-(2-{4-[2-tert-Butyl-6-(2-methoxy-ethyl)-pyrimidin-4-yl]-piperazin-1-yl}-ethyl)-cyclobutyl]-formamide trifluoroacetate]
- Rat mCl [2]: + (+: 20-120 μl min^−1 mg^−1)
- Human mCl [3]: + (+: 20-120 μl min^−1 mg^−1)
- Ki [4]: < 10 nM
- D2/D3 (Ki (D2L)/Ki (D3)) [5]: ++ (++>20)

SMILES: COCCc1cc(N2CCN(CC[C@H]3C[C@H](NC(C)=O)C3)C[C@@H]2C)nc(C(C)(C)C)n1 [Compound 30, trans-N-[3-[2-[(3S)-4-[2-tert-butyl-6-(2-methoxyethyl)pyrimidin-4-yl]-3-methyl-piperazin-1-yl]ethyl]cyclobutyl]acetamide]
- Rat mCl [2]: + (+: 20-120 μl min^−1 mg^−1)
- Human mCl [3]: + (+: 20-120 μl min^−1 mg^−1)
- Ki [4]: < 50 nM
- D2/D3 (Ki (D2L)/Ki (D3)) [5]: ++ (++>20)

SMILES: CC(=O)N[C@H]1CC[C@H](CCN2CCN(c3cc(CCOC(F)(F)F)nc(C(C)(C)C)n3)CC2)CC1 [Compound 10b, trans N-[4-(2-{4-[2-tert-Butyl-6-(2-trifluoromethoxy-ethyl)-pyrimidin-4-yl]-piperazin-1-yl}-ethyl)-cyclohexyl]-acetamide]
- Rat mCl [2]: ∘ (∘: >120 μl min^−1 mg^−1)
- Human mCl [3]: + (+: 20-120 μl min^−1 mg^−1)
- Ki [4]: < 10 nM
- D2/D3 (Ki (D2L)/Ki (D3)) [5]: + (+>10)
